Experimental data taken from PubChem BioAssay (NCI).
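Growth conditions: 96-well plates. Treatment: test compound, 48 hours, 5 concentrations. Analysis: linear interpolation between bracketing concentrations; unreached endpoints set to highest concentration. At the TGI there is no net growth.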

How the values were obtained:
Experiment in all cases: NCI anticancer screen, dose series, 48 h
MCF7 breast = tested on: MCF7 breast
NCI-H23 lung = tested on: NCI-H23 lung
HOP-62 NSCLC = tested on: HOP-62 NSCLC
MDA-MB-231 breast = tested on: MDA-MB-231 breast
CCRF-CEM leukemia = tested on: CCRF-CEM leukemia
NCI-H522 lung = tested on: NCI-H522 lung
SNB-19 CNS = tested on: SNB-19 CNS
UACC-62 melanoma = tested on: UACC-62 melanoma
SN12C renal = tested on: SN12C renal
NCI/ADR-RES ovarian = tested on: NCI/ADR-RES ovarian
RXF 393 renal = tested on: RXF 393 renal
A549 NSCLC = tested on: A549 NSCLC
MDA-MB-435 = tested on: MDA-MB-435
SR leukemia = tested on: SR leukemia
HOP-92 NSCLC = tested on: HOP-92 NSCLC
HS 578T breast = tested on: HS 578T breast
ACHN renal = tested on: ACHN renal
NCI-H226 lung = tested on: NCI-H226 lung
786-0 renal = tested on: 786-0 renal
SW-620 colon = tested on: SW-620 colon
BT-549 breast = tested on: BT-549 breast
OVCAR-5 ovarian = tested on: OVCAR-5 ovarian
MOLT-4 leukemia = tested on: MOLT-4 leukemia
HCT-116 colon = tested on: HCT-116 colon
KM12 colon = tested on: KM12 colon
SK-MEL-2 melanoma = tested on: SK-MEL-2 melanoma
NCI-H460 lung = tested on: NCI-H460 lung
OVCAR-8 ovarian = tested on: OVCAR-8 ovarian
HCT-15 colon = tested on: HCT-15 colon
SK-MEL-28 melanoma = tested on: SK-MEL-28 melanoma
MDA-N = tested on: MDA-N
U251 CNS = tested on: U251 CNS
CAKI-1 renal = tested on: CAKI-1 renal
COLO 205 colon = tested on: COLO 205 colon
EKVX NSCLC = tested on: EKVX NSCLC
UO-31 renal = tested on: UO-31 renal
SF-295 CNS = tested on: SF-295 CNS
HL-60(TB) leukemia = tested on: HL-60(TB) leukemia
OVCAR-3 ovarian = tested on: OVCAR-3 ovarian
SF-268 CNS = tested on: SF-268 CNS
LOX IMVI melanoma = tested on: LOX IMVI melanoma
SK-OV-3 ovarian = tested on: SK-OV-3 ovarian
IGROV1 ovarian = tested on: IGROV1 ovarian
SK-MEL-5 melanoma = tested on: SK-MEL-5 melanoma
HT29 colon = tested on: HT29 colon
TK-10 renal = tested on: TK-10 renal
OVCAR-4 ovarian = tested on: OVCAR-4 ovarian
DU-145 prostate = tested on: DU-145 prostate
UACC-257 melanoma = tested on: UACC-257 melanoma
HCC-2998 colon = tested on: HCC-2998 colon
M14 melanoma = tested on: M14 melanoma
RPMI-8226 leukemia = tested on: RPMI-8226 leukemia
PC-3 prostate = tested on: PC-3 prostate
K-562 leukemia = tested on: K-562 leukemia
SF-539 CNS = tested on: SF-539 CNS
T-47D breast = tested on: T-47D breast
SNB-75 CNS = tested on: SNB-75 CNS
MALME-3M melanoma = tested on: MALME-3M melanoma
A498 renal = tested on: A498 renal

For COc1ccccc1/C=C1\Sc2scc(-c3ccc(O)c(O)c3)[n+]2C1=O, the TGI (MCF7 breast) was 91.5 µM, the TGI (NCI-H23 lung) was 73.5 µM and the TGI (HOP-62 NSCLC) was > 100 µM. It also gave a TGI (MDA-MB-231 breast) of 45 µM, a TGI (CCRF-CEM leukemia) of 8.64 µM and a TGI (NCI-H522 lung) of 24.8 µM. For the same compound, the TGI (SNB-19 CNS) was > 100 µM, the TGI (UACC-62 melanoma) was 32.5 µM and the TGI (SN12C renal) was 67.5 µM. The TGI (NCI/ADR-RES ovarian) was > 100 µM, the TGI (RXF 393 renal) was 56.9 µM and the TGI (A549 NSCLC) was > 100 µM. The TGI (MDA-MB-435) was 86.2 µM, the TGI (SR leukemia) was 60.3 µM and the TGI (HOP-92 NSCLC) was 38.4 µM. For the same compound, the TGI (HS 578T breast) was > 100 µM, the TGI (ACHN renal) was 31 µM and the TGI (NCI-H226 lung) was > 100 µM. The TGI (786-0 renal) was 29.2 µM, the TGI (SW-620 colon) was 31.6 µM and the TGI (BT-549 breast) was 32.6 µM. The TGI (OVCAR-5 ovarian) was 85.7 µM, the TGI (MOLT-4 leukemia) was 38.9 µM and the TGI (HCT-116 colon) was 31.3 µM. For the same compound, the TGI (KM12 colon) was > 100 µM, the TGI (SK-MEL-2 melanoma) was 64.1 µM and the TGI (NCI-H460 lung) was 38.3 µM. The TGI (OVCAR-8 ovarian) was > 100 µM, the TGI (HCT-15 colon) was 30.6 µM and the TGI (SK-MEL-28 melanoma) was 33.1 µM. The TGI (MDA-N) was 67.1 µM, the TGI (U251 CNS) was > 100 µM and the TGI (CAKI-1 renal) was 29 µM. The TGI (COLO 205 colon) was 37.2 µM, the TGI (EKVX NSCLC) was > 100 µM and the TGI (UO-31 renal) was 43.2 µM. For the same compound, the TGI (SF-295 CNS) was > 100 µM, the TGI (HL-60(TB) leukemia) was 7.11 µM and the TGI (OVCAR-3 ovarian) was 36.7 µM. For the same compound, the TGI (SF-268 CNS) was > 100 µM, the TGI (LOX IMVI melanoma) was 33.5 µM and the TGI (SK-OV-3 ovarian) was 97 µM. For the same compound, the TGI (IGROV1 ovarian) was 34.2 µM, the TGI (SK-MEL-5 melanoma) was 44.1 µM and the TGI (HT29 colon) was 41.4 µM. The TGI (TK-10 renal) was > 100 µM, the TGI (OVCAR-4 ovarian) was 81.3 µM and the TGI (DU-145 prostate) was 57.4 µM. It also gave a TGI (UACC-257 melanoma) of 70.5 µM, a TGI (HCC-2998 colon) of 31.6 µM and a TGI (M14 melanoma) of 30.6 µM. For the same compound, the TGI (RPMI-8226 leukemia) was 45.2 µM, the TGI (PC-3 prostate) was > 100 µM and the TGI (K-562 leukemia) was 42.1 µM. The TGI (SF-539 CNS) was 55.8 µM and the TGI (T-47D breast) was 42.5 µM.
With COc1cc(C[C@@H](C)N)cc(OC)c1 the TGI (MCF7 breast) was > 100 µM, the TGI (NCI-H23 lung) was > 100 µM and the TGI (HOP-62 NSCLC) was > 100 µM. The TGI (MDA-MB-231 breast) was > 100 µM, the TGI (CCRF-CEM leukemia) was > 100 µM and the TGI (NCI-H522 lung) was > 100 µM. For the same compound, the TGI (SNB-19 CNS) was > 100 µM, the TGI (UACC-62 melanoma) was > 100 µM and the TGI (SN12C renal) was > 100 µM. The TGI (NCI/ADR-RES ovarian) was > 100 µM, the TGI (RXF 393 renal) was > 100 µM and the TGI (A549 NSCLC) was > 100 µM. The TGI (SNB-75 CNS) was 98.4 µM, the TGI (MDA-MB-435) was > 100 µM and the TGI (SR leukemia) was > 100 µM. For the same compound, the TGI (HS 578T breast) was > 100 µM, the TGI (ACHN renal) was > 100 µM and the TGI (NCI-H226 lung) was > 100 µM. The TGI (786-0 renal) was > 100 µM, the TGI (SW-620 colon) was > 100 µM and the TGI (BT-549 breast) was > 100 µM. The TGI (OVCAR-5 ovarian) was > 100 µM, the TGI (MOLT-4 leukemia) was > 100 µM and the TGI (HCT-116 colon) was > 100 µM. For the same compound, the TGI (KM12 colon) was > 100 µM, the TGI (SK-MEL-2 melanoma) was > 100 µM and the TGI (NCI-H460 lung) was > 100 µM. The TGI (MALME-3M melanoma) was > 100 µM, the TGI (OVCAR-8 ovarian) was > 100 µM and the TGI (HCT-15 colon) was > 100 µM. The TGI (SK-MEL-28 melanoma) was > 100 µM, the TGI (MDA-N) was > 100 µM and the TGI (U251 CNS) was > 100 µM. The TGI (CAKI-1 renal) was > 100 µM, the TGI (COLO 205 colon) was > 100 µM and the TGI (UO-31 renal) was > 100 µM. The TGI (SF-295 CNS) was > 100 µM, the TGI (HL-60(TB) leukemia) was > 100 µM and the TGI (OVCAR-3 ovarian) was > 100 µM. For the same compound, the TGI (SF-268 CNS) was > 100 µM, the TGI (LOX IMVI melanoma) was > 100 µM and the TGI (SK-OV-3 ovarian) was > 100 µM. The TGI (IGROV1 ovarian) was > 100 µM, the TGI (A498 renal) was > 100 µM and the TGI (SK-MEL-5 melanoma) was > 100 µM. The TGI (HT29 colon) was > 100 µM, the TGI (TK-10 renal) was > 100 µM and the TGI (OVCAR-4 ovarian) was > 100 µM. For the same compound, the TGI (DU-145 prostate) was > 100 µM, the TGI (UACC-257 melanoma) was > 100 µM and the TGI (HCC-2998 colon) was > 100 µM. For the same compound, the TGI (M14 melanoma) was > 100 µM, the TGI (RPMI-8226 leukemia) was > 100 µM and the TGI (PC-3 prostate) was > 100 µM. For the same compound, the TGI (K-562 leukemia) was > 100 µM, the TGI (SF-539 CNS) was > 100 µM and the TGI (T-47D breast) was > 100 µM.
